For series [1], the system named is Respiratory syncytial virus. Briefly: Antiviral activity against RSV A2 in VERO76 cells assessed as reduction of plaque number by MTT method. It is filed as functional, organism-based. To be noted: human respiratory syncytial virus, A2, Vero 76.
Series [2] concerns Bovine viral diarrhea virus 1. Briefly: Antiviral activity against BVDV NADL in MDBK cells assessed as protection from virus-induced cytopathogenicity by MTT method. It counts as functional, organism-based. To be noted: Bovine viral diarrhea virus isolates and strains.
Series [3] concerns Reovirus sp. Briefly: Antiviral activity against Reovirus. It counts as functional, organism-based.
In series [4] the test system is Vesicular stomatitis virus. Briefly: Antiviral activity against vesicular stomatitis virus. It is filed as functional, organism-based.
A short description of series [5]: Cytotoxicity against human MT4 cells after 96 hrs by MTT method. It counts as cell-based.
Series [6] relates to Human immunodeficiency virus 1. Description: Antiviral activity against HIV1. It counts as functional, organism-based.
Series [7] has as its system Vaccinia virus. Briefly: Antiviral activity against vaccinia virus. It is filed as functional, organism-based. The note with it: Orthopoxvirus vaccinia.
Series [8] has as its system Poliovirus 1. Description: Antiviral activity against Human poliovirus 1 Sabin. It is filed as functional.
Series [9] has as its system Yellow fever virus. Briefly: Antiviral activity against YFV in BHK cells assessed as protection from virus-induced cytopathogenicity by MTT method. It is filed as functional, organism-based.

Molecules are shown by their SMILES. Calls of active or inactive are those of the source. The rule behind the calls is not given here.

Regarding `CCOC(=O)N1CCN(Cc2c(O)ccc3c(C)cc(=O)oc23)CC1`, the results for the EC50 in series [1], in series [2] and in [9] were at least 100 µM, over 100 µM and over 100 µM, respectively. The outcome in series [3], in [4], in [6], in series [7] and in series [8] was inactive. Also, the CC50 at 96 h in [5] is over 100 µM.

As for `CN1CCN(Cc2c(O)ccc3ccc(=O)oc23)CC1`, the 50% effective concentration (EC50) in series [1], in series [2] and in series [9] was over 100 µM throughout. In addition, the outcome in [3], in [4], in series [6], in [7] and in series [8] was inactive. The compound further displayed a CC50 at 96 h in [5] of over 100 µM.

`O=C(Oc1ccc2ccc(=O)oc2c1CN1CCc2ccccc2C1)c1ccccc1`: the concentration giving a half-maximal response (EC50) in series [1] was 1 µM; in [2], over 100 µM; in series [9] it was over 100 µM. Also, the result in series [3], in series [4], in series [6], in [7] and in [8] was inactive. Moreover, the cytotoxic concentration (CC50) at 96 h in [5] is over 100 µM.

Take `CN(CC(=O)O)Cc1c(O)ccc2ccc(=O)oc12`: the half-maximal effective concentration (EC50) in series [1], in series [2] and in series [9] was over 100 µM in each case. In addition, the outcome in [3], in series [4], in series [6], in series [7] and in series [8] was inactive. In [5], this compound showed a CC50 at 96 h of over 100 µM.

For the compound `CC(=O)Oc1ccc2c(C)cc(=O)oc2c1Cc1c(-c2ccccc2)[nH]c2ccccc12`, the concentration for a half-maximal effect (EC50) in series [1], in series [2] and in [9] was over 100 µM throughout. For the same compound, the outcome in series [3], in series [4], in series [6], in [7] and in series [8] was inactive. Further, in [5], the CC50 at 96 h is over 100 µM.

For the compound `Cc1[nH]c2ccccc2c1Cc1c(OC(=O)CCCC(=O)O)ccc2c(C)cc(=O)oc12`, the EC50 in series [1] is over 100 µM; in [2], over 69 µM; in series [9] it was over 64 µM. For the same compound, the result in [3], in [4], in series [6], in [7] and in [8] was inactive. Further, the 50% cytotoxic concentration (CC50) at 96 h in [5] came out at 29 µM.

For the compound `CC(=O)c1ccc(N2CCN(Cc3c(O)ccc4c(C)cc(=O)oc34)CC2)cc1`, the EC50 in series [1], in series [2] and in [9] was over 100 µM each time. For the same compound, the outcome in series [3], in series [4], in series [6], in series [7] and in [8] was inactive. In addition, in series [5], the CC50 at 96 h amounted to 59 µM.

Consider `Cc1cc(=O)oc2c(CN3CCc4ccccc4C3)c(OC(=O)c3ccccc3)ccc12`, for which the values for the EC50 in series [1], in series [2] and in [9] were 18 µM, over 100 µM and over 100 µM, respectively. For the same compound, the result in series [3], in series [4], in [6], in series [7] and in series [8] was inactive. In series [5], this compound gave a 50% cytotoxic concentration (CC50) at 96 h of over 100 µM.

`CCCOc1ccc2c(C)cc(=O)oc2c1CN1CCCCC1`: the 50% effective concentration (EC50) is over 100 µM in series [1], 38 µM in series [2] and over 100 µM in series [9]. For the same compound, the outcome in [3], in [4], in series [6], in [7] and in series [8] was inactive. In addition, the CC50 at 96 h in [5] was over 100 µM.

With `CCC(=O)Oc1ccc2c(C)cc(=O)oc2c1Cc1c(C)[nH]c2ccccc12`, the EC50 was 45 µM in series [1], over 87 µM in series [2] and over 100 µM in [9]. The outcome in series [3], in series [4], in series [6], in [7] and in series [8] was inactive. The compound also yielded a CC50 at 96 h in series [5] of 31 µM.

Turning to `COc1ccc2c(=O)c(Cc3c(OC(C)=O)ccc4ccc(=O)oc34)c(N3CCCC3)oc2c1`, the EC50 in [1], in series [2] and in [9] was over 100 µM throughout. Besides, the outcome in [3], in [4], in series [6], in series [7] and in series [8] was inactive. The CC50 at 96 h in series [5] is over 100 µM.

For `O=c1ccc2ccc(O)c(CN3CCOCC3)c2o1`, the concentration giving a half-maximal response (EC50) in series [1], in series [2] and in [9] was over 100 µM in each case. Further, the result in series [3], in series [4], in series [6], in [7] and in series [8] was inactive. In series [5], this compound came in with a CC50 at 96 h of over 100 µM.

Regarding `CCCOc1ccc2c(C)cc(=O)oc2c1CN1CCN(C/C=C/c2ccccc2)CC1`, the results for the 50% effective concentration (EC50) in series [1], in series [2] and in [9] were over 100 µM, 27 µM and over 53 µM, respectively. The outcome in series [3], in series [4], in series [6], in series [7] and in series [8] was inactive. Also, the CC50 at 96 h in series [5] was over 100 µM.

For `CC(=O)Oc1ccc2ccc(=O)oc2c1Cc1c(N(C)C)oc2ccc3ccccc3c2c1=O`, the EC50 in [1] is over 30 µM; in series [2], over 48 µM; in series [9] it was over 52 µM. Further, the result in [3], in [4], in series [6], in [7] and in series [8] was inactive. In [5], this compound registered a 50% cytotoxic concentration (CC50) at 96 h of 80 µM.

Turning to `CCCCCCCCOc1ccc2c(=O)c(Cc3c(OC(C)=O)ccc4c(C)cc(=O)oc34)c(N(CC)CC)oc2c1`, the EC50 in series [1], in series [2] and in [9] was over 100 µM in each case. The result in [3], in [4], in [6], in series [7] and in [8] was inactive. In addition, in series [5], the half-maximal cytotoxic concentration (CC50) at 96 h was over 100 µM.

Consider `COCCN(CCOC)c1oc2cc(OC)ccc2c(=O)c1Cc1c(OC(C)=O)ccc2c(C)cc(=O)oc12`, for which the EC50 was 5 µM in series [1], 61 µM in [2] and over 100 µM in series [9]. Further, the outcome in series [3], in series [4], in series [6], in series [7] and in [8] was inactive. The compound also displayed a cytotoxic concentration (CC50) at 96 h in series [5] of over 100 µM.
